Data on 12 molecules can be found in patent US9381260B2, “Hypoxia inducible factor-1 pathway inhibitors and uses as anticancer and imaging agents” (EMORY UNIVERSITY, priority 2011, dated 2016).

Values after ≈ are worked out from the molar mass of the structure shown.

Series [1] deals with LN229-Lux cells (constitutive luciferase reporter gene). Nature of the series: Constitutive luciferase reporter control assay in LN229-Lux cells. The conditions noted are these: control for luciferase inhibition. It counts as cell-based, human. The protocol: (§1) Results are plotted as percent of luciferase activity found in extracts of untreated cells used as controls. (A) Luciferase activity in extracts of LN229-V6R cells, which contain a HIF-inducible luciferase reporter gene. The cells were grown under hypoxia to activate HIF. (B) Luciferase activity in extracts of LN229-Lux cells, which contain a constitutively expressed luciferase reporter gene. Results shown are from cells grown under normoxia; similar results were obtained under hypoxia.
(§2) The effects of the 12 heteroarylsulfonamides on HIF transcriptional activity under hypoxia were measured by determining the luciferase activity present in LN229-V6R cells, which contain a stably integrated hypoxia/HIF inducible luciferase reporter gene. As a control for the absence of inhibition on luciferase enzyme per se, we also tested 1 and five heteroarylsulfonamides in LN229-Lux cells that contain a constitutive luciferase reporter gene driven by a retroviral LTR promoter. An Hsp90 inhibitor, 17-DMAG, and 1 were used as positive controls. […] The heteroarylsulfonamides decreased HIF-1 activity in a dose-dependent fashion with IC50 values below (6a, 6b, 6d-6f, 6h, 6i, 6l) or close to 5 μM (6c, 6g, 6j, 6k) (FIG. 2).

In series [2] the test system is HIF-1 transcriptional activity. Put plainly: HIF-inducible luciferase reporter assay in LN229-V6R cells under hypoxia. It is filed as cell-based, human. Here is the method:
as §1, §2

Series [3] in a line: Aqueous solubility by laser nephelometry at pH 3.0, 5.0, 7.4. It is filed as physicochemical. The conditions noted are these: pH 5.0 and pH 3.0 versus pH 7.4.
Series [4] in a line: log P7.4 by shake flask or HPLC method (OECD guidelines). It is filed as physicochemical. The conditions noted are these: pH 7.4. The protocol: Experimental determinations of log P7.4, aqueous solubility, and metabolic stability of a selected number of the heteroarylsulfonamides were performed to further characterize the compounds (Table 2 log P7.4 was measured by either the shake flask method (6a, 6g) or the HPLC method (1, 6b-6f, 6h-6l) according to OECD guidelines. Most compounds followed the trends predicted by in silico calculations, and the measured values were smaller than the predicted values by 1.0-1.5. When a methoxy group or hydroxyl group is placed at the C-8 position of the chromene ring instead of a hydrogen, as in 6g, 6h, and 6l, the log P7.4 value decreased by more than 2 from the predicted values to result in 1.2-1.3. The presence of a 2-methylpropan-2-yl group in region 2 conferred high log P7.4 values, and heteroarylsulfonyl groups in region 1 also affected log P7.4 values, as shown for 6c, 6i, 6j, and 6k.

For another series, the system named is HIF-1α. Nature of the series: HIF-1α protein levels by Western blot in LN229-V6R cells under hypoxia. It counts as cell-based, human. The conditions noted are these: 24 h; for effect on HIF-1α protein levels: 3-100 μM. The protocol: HIF-1 is a heterodimer of HIF-1α and HIF-1β subunits, which then associates with p300 or CBP cofactors to form an active transcriptional complex. […] To determine whether the heteroarylsulfonamides retain this property, we determined the levels of HIF-1α protein under hypoxia in LN229-V6R cells. […] We investigated if the levels of HIF-1α protein would correlate with transcriptional inhibition of the HRE reporter by the compounds. LN229-V6R cells were treated with the compounds at concentrations of 3, 6, 12, 25, 50, and 100 μM under hypoxia for 24 h, and then HIF-1α protein levels in the cell extracts were examined by Western blotting. […] 6g and 61 decreased HIF-1a levels in a dose-dependent fashion starting from 12 and 25 μM, respectively (FIG. 3). […] The reduction in HIF-1α levels afforded by all three compounds at 100 μM may reflect nonspecific cytotoxicity.

Series [5] in a line: Metabolic stability in homogenates of mouse liver. It counts as in vitro ADME. The conditions noted are these: homogenates of mouse liver in PBS 1:2 (w/v), ex vivo; for half-life: mouse, mouse liver homogenate, read-out: half-life (hepatic metabolic stability) (converted). The protocol:
Metabolic stabilities of 1, 6a, 6d, 6g, and 6l were measured in mouse plasma and homogenates of mouse liver in PBS [1:2 (w/v)].

The nature of series [6]: Aqueous solubility by HPLC-UV on filtered saturated suspensions. The conditions noted are these: for aqueous solubility (n = 3) / solubility: HPLC-UV, saturated aqueous suspension, PTFE filter 0.2 μm; for solubility: water, thermodynamic from solid, read-out: aqueous solubility (n = 3); for aqueous solubility relative to 1: fold more soluble than compound 1. It is filed as physicochemical. An excerpt:
Aqueous solubilities of 1, 6a, 6d, and 6g were quantified by HPLC coupled with a UV detector on saturated aqueous suspensions after filtration with a polytetrafluoroethylene (PTFE) filter (pore size 0.2 μm). 6a and 6d were chosen due to their strong activity in the HRE-reporter assay, and 6g was picked to evaluate the influence of the methoxy group attached to the C-8 position of the chromene ring. Aqueous solubilities of 6a, 6d, and 6g are, respectively, 100, 20, and 9000 times better than that of 1, which are consistent with the log Sw predictions for 6a and 6d. The substitution of hydrogen with a methoxy group at the C-8 position of the chromene ring increased the aqueous solubility by 90 times (compare 6a and 6g).

In series [7] the test system is HFF-1 immortalized human fibroblasts. Put plainly: Clonogenicity assay HFF-1. It is filed as cell-based. The conditions noted are these: HFF-1, 336 h, 14 days. An excerpt: (§3) To determine whether 6a, 6g, and 6l altered tumor cell growth in culture, we performed sulforhodamine B (SRB) assays in LN229-V6R glioma cells in 3 days, and to further examine the cell growth inhibitory activity of 6a, 6g, and 61 in an independent biological assay, we performed clonogenicity assays in LN229 human glioblastoma cells and HFF-1 immortalized human fibroblasts, over a period of 14 days.

The test system of series [8] is LN229 human glioblastoma cells. Nature of the series: Clonogenicity assay LN229. It counts as cell-based. The conditions noted are these: LN-229, 336 h, 14 days.
Excerpt: as §3

On to `CO[C@H]1/C=C\C=C(/C)C(=O)NC2=CC(=O)C(NCCN(C)C)=C(C[C@@H](C)C[C@H](OC)[C@H](O)[C@@H](C)/C=C(\C)[C@@H]1OC(N)=O)C2=O` [17-DMAG, reference compound], for which the “effect on luciferase activity in LN229-Lux cells” value in [1] was “inhibited”. In [2], the “effect on luciferase activity in LN229-V6R cells” value was “inhibited”.

With `COc1ccc(S(=O)(=O)N(Cc2ccc3c(c2)C=CC(C)(C)O3)c2ccccc2)cc1OC` [Compound 1, 3,4-Dimethoxy-N-[(2,2-dimethyl-2H-chromene-6-yl)methyl]-N-phenylbenzenesulfonamide, reference compound], the “effect of low pH on aqueous solubility” value in [3] was “pH did not affect aqueous solubility”. For the same molecule, the “effect on luciferase activity in LN229-Lux cells” value in series [1] is reported as “reduced luciferase activity only in LN229-V6R cells”. Besides, the “log P7.4” value in series [4] is 3.7. In the series on HIF-1α, the “effect on HIF-1α protein levels” value is given as “does not antagonize hypoxia-induced HIF-1α expression”. For the same molecule, in series [5], the half-life is 11 h. For the same molecule, in [6], the “aqueous solubility (n = 3)” value stood at 0.009 µM (≈ 0.00419 µg/mL) and the solubility was 0.003 µg/mL (≈ 0.00644 µM). The activity at 2.5 µM in series [2] (Homo sapiens, 2.5 μM, LN229-V6R cells, read-out: remaining HIF-1 activity at 2.5 μM, % of control) was determined as 18%.

`CC(C)N(Cc1ccc2c(c1)C=CC(C)(C)O2)S(=O)(=O)c1ccccn1` [Compound 6a, N-[(2,2-Dimethyl-2H-chromen-6-yl)methyl]-N-(propan-2-yl)pyridine-2-sulfonamide]: the “effect of low pH on aqueous solubility” value in series [3] is given as 50-60 times. In addition, in series [4], the “log P7.4” value came out at 2.0. The IC50 was 93 µM in series [7] (HFF-1, hypoxia); 62 µM in series [7] (HFF-1, normoxia); 134 µM in [8] (LN229, hypoxia); 82 µM in series [8] (LN229, normoxia); less than 5 µM in [2] (Homo sapiens, LN229-V6R cells). For the same molecule, the “effect on HIF-1α protein levels” value in the series with HIF-1α is given as “no effect on HIF-1α levels at all concentrations tested, except for a slight reduction at the highest concentration (100 μM)”. Moreover, the “half-life (hepatic metabolic stability)” value in series [5] turned out to be 20 h. For the same molecule, the half-life in series [5] was 13 to 20 h. Moreover, in series [6], the “aqueous solubility (n = 3)” value is 1 ± 0.1 µM (≈ 0.372 µg/mL). The “aqueous solubility relative to 1” value in series [6] was found to be 100 times. Moreover, the solubility in series [6] stood at 0.3 µg/mL (≈ 0.805 µM). For the same molecule, the “inhibition of HIF-1 transcriptional activity (HRE-reporter) at 10 μM” value in [2] (10 μM, LN229-V6R cells, 1 day) is listed as “inhibited completely”.

Consider `CC1(C)C=Cc2cc(CN(C3CC3)S(=O)(=O)c3ccccn3)ccc2O1` [Compound 6b, N-Cyclopropyl-N-[(2,2-dimethyl-2H-chromen-6-yl)methyl]pyridine-2-sulfonamide], for which, in series [4], the “log P7.4” value is 3.0. The IC50 in series [2] (Homo sapiens, LN229-V6R cells) is less than 5 µM.

As for `CC(C)CN(Cc1ccc2c(c1)C=CC(C)(C)O2)S(=O)(=O)c1ccccn1` [Compound 6c, N-[(2,2-Dimethyl-2H-chromen-6-yl)methyl]-N-(2-methylpropyl)pyridine-2-sulfonamide], the “log P7.4” value in [4] is given as 4.1.

As for `CC1(C)C=Cc2cc(CN(CC3CC3)S(=O)(=O)c3ccccn3)ccc2O1` [Compound 6d, N-(Cyclopropylmethyl)-N-[(2,2-dimethyl-2H-chromen-6-yl)methyl]pyridine-2-sulfonamide], in [4], the “log P7.4” value stood at 3.1. Moreover, in series [5], the “half-life (hepatic metabolic stability)” value turned out to be 13 h and the half-life is 13 to 20 h. Further, in series [6], the “aqueous solubility (n = 3)” value came to 0.2 ± 0.07 µM (≈ 0.0769 µg/mL), the “aqueous solubility relative to 1” value came to 20 times and the solubility came to 0.1 µg/mL (≈ 0.26 µM).

For the molecule `CC1(C)C=Cc2cc(CN(C3CCC3)S(=O)(=O)c3ccccn3)ccc2O1` [Compound 6e, N-(Cyclobutyl)-N-[(2,2-dimethyl-2H-chromen-6-yl)methyl]pyridine-2-sulfonamide], the “log P7.4” value in series [4] is reported as 3.0.

Turning to `CC1(C)C=Cc2cc(CN(C3CCCC3)S(=O)(=O)c3ccccn3)ccc2O1` [Compound 6f, N-(Cyclopentyl)-N-[(2,2-dimethyl-2H-chromen-6-yl)methyl]pyridine-2-sulfonamide], in series [4], the “log P7.4” value was 3.8.

`COc1cc(CN(C(C)C)S(=O)(=O)c2ccccn2)cc2c1OC(C)(C)C=C2` [Compound 6g]: the IC50 in [7] (HFF-1, hypoxia) is more than 100 µM; in series [7] (HFF-1, normoxia), 55 µM; in series [8] (LN229, hypoxia), more than 100 µM; in series [8] (LN229, normoxia) it was 69 µM. Also, the “concentration from which HIF-1α levels decreased dose-dependently” value in the series with HIF-1α was 12 µM. In series [5], the “half-life (hepatic metabolic stability)” value was 15 h. Also, the half-life in series [5] was 13 to 20 h. Moreover, the “aqueous solubility relative to 1” value in [6] is given as 9000 times.

With `CC(C)CN(Cc1ccc2c(c1)C=CC(C)(C)O2)S(=O)(=O)c1ccncc1` [Compound 6i, N-[(2,2-Dimethyl-2H-chromen-6-yl)methyl]-N-(2-methylpropyl)pyridine-4-sulfonamide], the “log P7.4” value in [4] is 3.6. The IC50 in series [2] (Homo sapiens, LN229-V6R cells) was less than 5 µM.

On to `CC(C)CN(Cc1ccc2c(c1)C=CC(C)(C)O2)S(=O)(=O)c1nccn1C` [Compound 6j, N-[(2,2-Dimethyl-2H-chromen-6-yl)methyl]-N-(2-methylpropyl)-1-methyl-1H-imidazole-2-sulfonamide], for which the “log P7.4” value in [4] is given as 3.1.

Regarding `CC(C)CN(Cc1ccc2c(c1)C=CC(C)(C)O2)S(=O)(=O)c1nccs1` [Compound 6k, N-[(2,2-Dimethyl-2H-chromen-6-yl)methyl]-N-(2-methylpropyl)-1,3-thiazole-2-sulfonamide], the “log P7.4” value in series [4] amounted to 4.4.

What is called half-life is the time in which the quantity being followed falls by half. As a reminder, the solubility is how much of the substance goes into solution per volume. The term IC50 denotes the concentration needed to halve the response being measured.
